Values quoted from earlier work as cited in patent publication US8509867B2, “Non-invasive measurement of analytes” (Cercacor Laboratories, Inc., priority 2002, dated 2013).

Experiments:
[1] = i.v., rats (Merck)

COC(=O)c1ccccc1-c1c2ccc(=N)cc-2oc2cc(N)ccc12 [Rh123, (2-(6-Amino-3-imino-3H-xanthen-9-yl)benzoic acid methyl ester)]
fifty percent lethality (LD50) [1]: 89.5 mg/kg
intravenous lethal dose for animals (LD10): approximately 20 mg/kg of body weight
